We go through 7 molecules from US8629173B2, “Solid forms comprising (+)-2-[1-(3-ethoxy-4-methoxyphenyl)-2-methylsulfonylethyl]-4-acetylaminoisoindoline-1,3-dione, compositions thereof, and uses thereof” (Celgene Corporation, priority 2002, dated 2014).

Series [1] is described as follows: Hygroscopicity (DVS moisture sorption/desorption) studies. It is filed as physicochemical. Particulars: for hygroscopicity / XRPD pattern / solid form after full adsorption/desorption cycle: DVS; for hygroscopicity: 0-95% RH; for XRPD pattern / solid form after full adsorption/desorption cycle: 0-95-0% RH; for moisture sorption mass change of the starting mass: RH increased from about 0% to about 95% RH, about 25° C. On the procedure: Hygroscopicity studies. The hygroscopicity of various solid forms was studied using a Surface Measurement Systems DVS instrument. Typically a sample size of between about 10-50 mg was loaded into the DVS instrument sample pan and the sample was analyzed on a DVS automated sorption analyzer at about 25° C. The relative humidity was increased in increments of about 10% from about 0% to about 95% RH. The relative humidity was then decreased in a similar manner to accomplish a full adsorption/desorption cycle. The mass was recorded at periodic intervals throughout the experiment.

A short description of series [2]: Interconversion studies of solid forms. It is filed as physicochemical. Particulars: EQ in acetone:ethanol (1:1) at 25° C., at least 2 days. How it is done: Interconversion Studies. Interconversion experiments were performed by making slurries of a solid form in a saturated solvent. The slurries were agitated for at least 2 days at about 25° C. The saturated solution was removed by filtration and the solid was dried in the air.

The nature of series [3]: Compression studies of solid forms. Particulars: 2000 psi for at least one minute.
The nature of series [4]: Stability studies of solid forms. The note with it: for Stability: Analysis by XRPD (solid form after stress) / Stability: Appearance: 40° C./75% RH, 4 weeks. Format: physicochemical. How it is done: Stability Studies. The stabilities of Forms A, B, C and D were studied by exposing the solid samples to the stress condition of 40° C./75% RH for four weeks. Moreover, the stabilities of Forms A, B, C and D in different solvents were studied by equilibration in different solvents at 40° C. for four weeks. The slurries then were filtered and dried in the air. Solid samples obtained from the stability experiments were analyzed by XRPD and DSC.

[5] abbreviates: EQ in ethanol at 40° C. for 4 weeks.
[6] abbreviates: EQ in heptane at 40° C. for 4 weeks.
The mark [7] stands for this setting: EQ in water at 40° C. for 4 weeks.
The mark [8] stands for this setting: EQ in toluene at 40° C. for 4 weeks.

Entries after “also recorded” stand apart in the source; their conditions may differ.

Take `CCOc1cc(C(CS(C)(=O)=O)N2C(=O)c3cccc(NC(C)=O)c3C2=O)ccc1OC` (single isomer, unassigned; (+)) [Form E, (+)-2-[1-(3-ethoxy-4-methoxyphenyl)-2-methylsulfonylethyl]-4-acetylaminoisoindoline-1,3-dione]: in series [1], the hygroscopicity result is “hygroscopic”, the “XRPD pattern / solid form after full adsorption/desorption cycle” value was “substantially unchanged; also recorded: none of the forms analyzed underwent substantial solid-state transformation” and the “moisture sorption mass change of the starting mass” value (from here on “moisture sorption mass change”) was “about 5.1%”. Also, the “Interconversion: Analysis by XRPD (solid form after equilibration)” value (“Interconversion: Analysis by XRPD” below) in series [2] is listed as “Form B”.

Consider `CCOc1cc(C(CS(C)(=O)=O)N2C(=O)c3cccc(NC(C)=O)c3C2=O)ccc1OC` (single isomer, unassigned; (+)) [Form B, (+)-2-[1-(3-ethoxy-4-methoxyphenyl)-2-methylsulfonylethyl]-4-acetylaminoisoindoline-1,3-dione], for which the “physical stability upon compression (XRPD)” value in series [3] is on record as “substantially physically stable”. In addition, in series [4], the “Stability: Analysis by XRPD (solid form after stress)” value (“Stability … (solid form after stress)” for short) is on record as “stable; also recorded: Form B” and the “Stability: Appearance” value is reported as “White solid”. For the same molecule, the “Stability: Analysis by XRPD (solid form after equilibration)” value in series [4] (setting [5]) is given as “stable; also recorded: Form B”. Further, the “Stability: Analysis by XRPD (solid form after equilibration)” value in series [4] (setting [6]) is “stable; also recorded: Form B”. Besides, in series [4] (setting [7]), the “Stability: Analysis by XRPD (solid form after equilibration)” value is listed as “stable; also recorded: Form B”. In series [1], the hygroscopicity entry is reported as “substantially nonhygroscopic”, the “XRPD pattern / solid form after full adsorption/desorption cycle” value is recorded as “substantially unchanged; also recorded: none of the forms analyzed underwent substantial solid-state transformation” and the “moisture sorption mass change” value was “about 0.6%”.

Turning to `CCOc1cc(C(CS(C)(=O)=O)N2C(=O)c3cccc(NC(C)=O)c3C2=O)ccc1OC` (single isomer, unassigned; (+)) [Form F, (+)-2-[1-(3-ethoxy-4-methoxyphenyl)-2-methylsulfonylethyl]-4-acetylaminoisoindoline-1,3-dione], in series [1], the hygroscopicity entry was “substantially nonhygroscopic”, the “XRPD pattern / solid form after full adsorption/desorption cycle” value is on record as “substantially unchanged; also recorded: none of the forms analyzed underwent substantial solid-state transformation” and the “moisture sorption mass change” value is on record as “about 0.2%”. Also, in series [2], the “Interconversion: Analysis by XRPD” value is given as “stable; also recorded: Form F”.

With `CCOc1cc(C(CS(C)(=O)=O)N2C(=O)c3cccc(NC(C)=O)c3C2=O)ccc1OC` (single isomer, unassigned; (+)) [Form C, (+)-2-[1-(3-ethoxy-4-methoxyphenyl)-2-methylsulfonylethyl]-4-acetylaminoisoindoline-1,3-dione], the “physical stability upon compression (XRPD)” value in series [3] was “substantially physically stable”. Further, in series [4], the “Stability … (solid form after stress)” value is “stable; also recorded: Form C” and the “Stability: Appearance” value is reported as “Yellow solid”. The “Stability: Analysis by XRPD (solid form after equilibration)” value in series [4] (setting [5]) is on record as “stable; also recorded: Form C”. Besides, the “Stability: Analysis by XRPD (solid form after equilibration)” value in series [4] (setting [6]) is reported as “stable; also recorded: Form C”. For the same molecule, the “Stability: Analysis by XRPD (solid form after equilibration)” value in series [4] (setting [8]) was “stable; also recorded: Form C”. Besides, the “Stability: Analysis by XRPD (solid form after equilibration)” value in series [4] (setting [7]) is on record as “stable; also recorded: Form C”. Also, in series [1], the hygroscopicity result is given as “substantially nonhygroscopic”, the “XRPD pattern / solid form after full adsorption/desorption cycle” value was “substantially unchanged; also recorded: none of the forms analyzed underwent substantial solid-state transformation” and the “moisture sorption mass change” value was “about 0.5%”. Also, the “Interconversion: Analysis by XRPD” value in series [2] was “Form C”.

Turning to `CCOc1cc(C(CS(C)(=O)=O)N2C(=O)c3cccc(NC(C)=O)c3C2=O)ccc1OC` (single isomer, unassigned; (+)) [Form A, (+)-2-[1-(3-ethoxy-4-methoxyphenyl)-2-methylsulfonylethyl]-4-acetylaminoisoindoline-1,3-dione], the “physical stability upon compression (XRPD)” value in series [3] is on record as “substantially physically stable”. The “Stability … (solid form after stress)” value in series [4] is “stable; also recorded: Form A”. Moreover, the “Stability: Appearance” value in series [4] is recorded as “White solid”. For the same molecule, the “Stability: Analysis by XRPD (solid form after equilibration)” value in series [4] (setting [5]) is recorded as “stable; also recorded: Form F”; in series [4] (setting [6]), “stable; also recorded: Form A”; in series [4] (setting [8]), “converts to Form C”; in series [4] (setting [7]) it was “stable; also recorded: Form A”. Besides, the hygroscopicity entry in series [1] is listed as “substantially nonhygroscopic”. Further, the “XRPD pattern / solid form after full adsorption/desorption cycle” value in series [1] was “substantially unchanged; also recorded: none of the forms analyzed underwent substantial solid-state transformation”. Further, the “moisture sorption mass change” value in series [1] is given as “about 0.4%”. Also, the “Interconversion: Analysis by XRPD” value in series [2] is “Form B”.

For `CCOc1cc(C(CS(C)(=O)=O)N2C(=O)c3cccc(NC(C)=O)c3C2=O)ccc1OC` (single isomer, unassigned; (+)) [Form G, (+)-2-[1-(3-ethoxy-4-methoxyphenyl)-2-methylsulfonylethyl]-4-acetylaminoisoindoline-1,3-dione], in series [1], the hygroscopicity entry is recorded as “substantially nonhygroscopic”, the “XRPD pattern / solid form after full adsorption/desorption cycle” value is on record as “substantially unchanged; also recorded: none of the forms analyzed underwent substantial solid-state transformation” and the “moisture sorption mass change” value was “about 0.4%”. Further, the “Interconversion: Analysis by XRPD” value in series [2] was “converts to Form B”.

Regarding `CCOc1cc(C(CS(C)(=O)=O)N2C(=O)c3cccc(NC(C)=O)c3C2=O)ccc1OC` (single isomer, unassigned; (+)) [Form D, (+)-2-[1-(3-ethoxy-4-methoxyphenyl)-2-methylsulfonylethyl]-4-acetylaminoisoindoline-1,3-dione], the “physical stability upon compression (XRPD)” value in series [3] was “substantially physically stable”. Moreover, in series [4], the “Stability … (solid form after stress)” value was “stable; also recorded: Form D” and the “Stability: Appearance” value is given as “White solid”. In series [4] (setting [5]), the “Stability: Analysis by XRPD (solid form after equilibration)” value was “converts to Form B”. The “Stability: Analysis by XRPD (solid form after equilibration)” value in series [4] (setting [6]) is reported as “converts to Form B”. The “Stability: Analysis by XRPD (solid form after equilibration)” value in series [4] (setting [8]) is reported as “converts to Form C”. The “Stability: Analysis by XRPD (solid form after equilibration)” value in series [4] (setting [7]) is listed as “converts to Form B”. In series [1], the hygroscopicity result is listed as “slightly hygroscopic”, the “XRPD pattern / solid form after full adsorption/desorption cycle” value was “substantially unchanged; also recorded: none of the forms analyzed underwent substantial solid-state transformation” and the “moisture sorption mass change” value was “about 1.5%”. For the same molecule, the “Interconversion: Analysis by XRPD” value in series [2] is recorded as “Form B”.
